Patent publication US6916461B2, “Metal complexes that contain perfluoroalkyl, process for their production and their use in NMR diagnosis” (Schering AG, priority 1996, dated 2005)
Read-outs that look alike come from different tables or passages of the source.

Tests used:
[1] = Blood elimination kinetics of contrast media in rats after one-time intravenous administration; type: in vivo, rats (Han Wistar, Schering SPF); conditions: for distribution volume Vss, MEAN / elimination half-life Tβ, MEAN / total clearance CLtot, MEAN: one-time i.v., Dy-DTPA 100 μmol Dy/kg (n=3), Example 1c 50 μmol Gd/kg (n=2), TOPFIT 2.0
Experimental: The blood elimination kinetics of contrast media was examined in rats (Han Wistar, Schering SPF, ≈250 g of body weight). For this purpose, after one-time intravenous administration (via a caudal vein) of the substances (dose: 50-100 μmol of Me per kg of body weight), the substance concentration in the blood (based on the Gd or Dy content) was determined over a period of up to 300 minutes p.i. with the aid of ICP-AES. The pharmacokinetic parameters: distribution volume (Vss), total clearance (CLtot) and elimination half-life (tβ) were calculated with a special computer program (TOPFIT 2.0; Thomae, Schering, Gödecke), whereby a one- or two-compartment distribution model was used as a basis.
FIG. 1 represents elimination from the blood (in % of the injected dose) of Dy-DTPA (dose: 100 μmol of Dy per kg of body weight, n=3) and of the fluorine compounds of Example 1c according to the invention (dose: 50 μmol of Gd per kg of body weight, n=2) after one-time intravenous administration of substances in rats (Han Wistar, Schering SPF, ≈250 g of body weight).
The Gd and Dy contents in the blood were determined with the aid of ICP-AES.

[2] = T1-relaxivity with Minispec pc 20 (20 MHz, 0.47T) at 37° C. in water and human plasma; type: physicochemical; conditions: for T1-relaxivity: 20 MHz; for R^1 [L/mmol * sec] at 0.47 T and 37° C. Plasma / R^1 [L/mmol * sec] at 0.47 T and 37° C. Water: T1-relaxivity, Minispec pc 20 (20 MHz, 0.47 T); for R^1 [L/mmol * sec] at 0.47 T and 37° C. Plasma: in human plasma; for R^1 [L/mmol * sec] at 0.47 T and 37° C. Water: in water
Experimental: The relaxivity of the following compounds was determined with a Minispec pc 20 (20 MHz, 0.47T) at 37° C. in water and human plasma and compared to that of Gd-DTPA-polylysine and Magnevist^(R) as comparison substances.

[3] = Lymph node visualization (MRT) after interstitial administration of the contrast medium; type: in vivo; conditions: guinea pigs, 120 minutes after s.c. 10 μmol of Gd/kg, T1-weighted spin echo (TR 400 ms, TE 15 ms)
Experimental: It was possible to confirm the special suitability of the compounds according to the invention in MR imaging studies in guinea pigs. Thus, 120 minutes after subcutaneous administration of 10 μmol/kg of body weight of a perfluorine-containing gadolinium complex (guinea pigs, hind paw, interdigital space) in T^1-weighted spin-echo images (TR 400 ms, TE 15 ms), a clear enhancement of the popliteal lymph nodes (270%) as well as the inguinal lymph nodes (104%) was observed (cf. Image 1).

[4] = Elimination of the contrast medium after i.p. administration (retention of metal in liver and remainder of the body); type: in vivo; conditions: rats, i.p. 100 μmol of total gadolinium/kg, 14 days p.i.
From the text: After administration of a perfluorinated gadolinium complex according to the invention (100 μmol of total gadolinium/kg of body weight) in the intraperitoneal space of rats, the retention of metal in the liver as well as in the remainder of the body was examined 14 days after administration. In this test, fluorine-containing compound 2c) was used. After 14 days p.i., the gadolinium concentration was 0.22% of the administered dose in the liver and 1.1% of the administered dose in the remainder of the body.

[5] = rat, in vivo, iv; cited from earlier work
[6] = T1-relaxivity, from Invest. Radiol. 1992, 346, cited from earlier work

Compound	T1-relaxivity ([2]; human plasma) [L/mmol/s]	T1-relaxivity ([2]; water) [L/mmol/s]	R^1 [L/mmol * sec] at 0.47 T and 37° C. Plasma [2] [L/mmol/s]	R^1 [L/mmol * sec] at 0.47 T and 37° C. Water [2] [L/mmol/s]	also measured
O=C([O-])CN(CCN(CC(=O)[O-])CC(=O)[O-])CCN(CC(=O)[O-])CC(=O)[O-].[Dy+3].[Na+].[Na+] [Dy-DTPA, reference compound]					distribution volume Vss, MEAN [1]: 0.17 L/kg; elimination half-life Tβ, MEAN [1]: 14.98 min; total clearance CLtot, MEAN [1]: 9.27 mL/min/kg
CCN(CC(=O)NCC(O)CN1CCN(CC(=O)[O-])CCN(CC(=O)[O-])CCN(CC(=O)[O-])CC1)S(=O)(=O)C(F)(F)C(F)(F)C(F)(F)C(F)(F)C(F)(F)C(F)(F)C(F)(F)C(F)(F)F.[Gd+3] (stereo not drawn) [Example 1c, Gadolinium Complex of 10-[2-hydroxy-4-aza-5-oxo-7aza-7-(perfluorooctylsulfonyl)-nonyl]-1,4,7-tris(carboxymethyl)-1,4,7,10-tetraazacyclododecane]	49	41	49	41	distribution volume in comparison to Dy-DTPA ([1]; i.v.): smaller distribution volume; elimination from the blood in comparison to Dy-DTPA ([1]; i.v.): considerably slower elimination from the blood; distribution volume Vss, MEAN [1]: 0.14 L/kg; elimination half-life Tβ, MEAN [1]: 95.01 min; total clearance CLtot, MEAN [1]: 1.07 mL/min/kg
CCN(CC(=O)NCC(O)CN1CCN(CC(=O)[O-])CCN(CC(=O)[O-])CCN(CC(=O)[O-])CC1)S(=O)(=O)C(F)(F)C(F)(F)C(F)(F)C(F)(F)C(F)(F)C(F)(F)C(F)(F)C(F)(F)F.[Mn+2].[Na+] (stereo not drawn) [Example 1e, Manganese complex of 10-[2-hydroxy-4-aza-5-oxo-7-aza-7-(perfluorooctylsulfonyl)-nonyl]-1,4,7-tris(carboxymethyl)-1,4,7,10-tetraazacyclododecane (as sodium salt)]	4.2	2.7			
O=C([O-])CN1CCN(CC(=O)[O-])CCN(CC(O)CNC(=O)COCCC(F)(F)C(F)(F)C(F)(F)C(F)(F)C(F)(F)C(F)(F)C(F)(F)C(F)(F)F)CCN(CC(=O)[O-])CC1.[Gd+3] (stereo not drawn) [Example 2c, Gadolinium complex of 10-[2-hydroxy-4-aza-5-oxo-7-oxa-10,10,11,11,12,12,13,13,14,14,15,15,16,16,17,17,17-heptadecafluoroheptadecyl]-1,4,7-tris(carboxymethyl)-1,4,7,10-tetraazacyclododecane]	33	19	33	19	signal in the popliteal and inguinal lymph nodes of the injected side vs non-injected side or precontrast image [3]: strong signal rise; gadolinium concentration in the liver [4]: 0.22 % of the administered dose; gadolinium concentration in the remainder of the body [4]: 1.1 % of the administered dose
O=C([O-])CN1CCN(CC(=O)[O-])CCN(CC(O)COCCC(F)(F)C(F)(F)C(F)(F)C(F)(F)C(F)(F)C(F)(F)C(F)(F)C(F)(F)F)CCN(CC(=O)[O-])CC1.[Gd+3] (stereo not drawn) [Example 3c, Gadolinium complex of 10-[-2hydroxy-4-oxa-1H,1H,2H,3H,3H,5H,5H,6H,6H-perfluorotetradecyl]-1,4,7-tris(carboxymethyl)-1,4,7,10-tetraazacyclododecane]	27.5	15.2	27.5	15.2	
CNC[C@H](O)[C@@H](O)[C@H](O)[C@H](O)CO.CNC[C@H](O)[C@@H](O)[C@H](O)[C@H](O)CO.O=C([O-])CN(CCN(CC(=O)[O-])CC(=O)O)CCN(CC(=O)[O-])CC(=O)O.[Gd+3] [Magnevist, reference compound]			4.8	3.8	
albumin-Gd-DTPA					concentration in the liver tissue [5]: ~30 % of the dose
polylysine-Gd-DTPA					R^1 [L/mmol * sec] at 0.47 T and 37° C. Plasma ([6]; in plasma): 16.8 L/mmol/s; R^1 [L/mmol * sec] at 0.47 T and 37° C. Water ([6]; in water): 13.1 L/mmol/s
